Laboratory results as given in patent US20040171566A1, “Antisense modulation of p38 mitogen activated protein kinase expression” (priority 1999, published 2004).
In the oligonucleotide strings, read from the 5' end, every base follows the letter of its sugar. An asterisk marks phosphorothioate; unmarked linkages are phosphodiester. Other units and linkages are bracketed, terminal groups are in braces. A string of capitals states the bases alone. e = 2'-O-(2-methoxyethyl) (MOE); [5mC] = 5-methylcytosine; d = 2'-deoxy (DNA)

How the values were obtained:
[1] = system: human p38β mRNA; test: Human p38β mRNA expression in T-24 cells; settings: relative to control oligonucleotide = 100%
[2] = system: human p38α mRNA; test: Inhibition of human p38α mRNA expression in Jurkat cells, Northern blot; format: cell-based
Protocol: The human Jurkat T-cell line (American Type Culture Collection, Manassas, Va.) was maintained in RPMI 1640 growth media supplemented with 10% fetal bovine serum (FBS; Hyclone, Logan, Utah). HUVEC cells (Clonetics, San Diego, Calif.) were cultivated in endothelial basal media supplemented with 10% FBS (Hyclone, Logan, Utah).
Jurkat cells were grown to approximately 75% confluency and resuspended in culture media at a density of 1×10^7 cells/ml. A total of 3.6×10^6 cells were employed for each treatment by combining 360 μl of cell suspension with oligonucleotide at the indicated concentrations to reach a final volume of 400 μl. Cells were then transferred to an electroporation cuvette and electroporated using an Electrocell Manipulator 600 instrument (Biotechnologies and Experimental Research, Inc.) employing 150 V, 1000 μF, at 13 Ω. Electroporated cells were then transferred to conical tubes containing 5 ml of culture media, mixed by inversion, and plated onto 10 cm culture dishes.
Total mRNA was isolated using the RNEASY7 Mini Kit (Qiagen, Valencia, Calif.; similar kits from other manufacturers may also be used), separated on a 1% agarose gel, transferred to HYBOND™-N+ membrane (Amersham Pharmacia Biotech, Piscataway, N.J.), a positively charged nylon membrane, and probed. p38 MAPK probes were made using the Prime-A-Gene7 kit (Promega Corporation, Madison, Wis.), a random primer labeling kit, using mouse p38α or p38β cDNA as a template. A glyceraldehyde 3-phosphate dehydrogenase (G3PDH) probe was purchased from Clontech (Palo Alto, Calif.), Catalog Number 9805-1. The fragments were purified from low-melting temperature agarose, as described in Maniatis, T., et al., Molecular Cloning: A Laboratory Manual, 1989. The G3PDH probe was labeled with REDIVUE™ ^32P-dCTP (Amersham Pharmacia Biotech, Piscataway, N.J.) and Strip-EZ labelling kit (Ambion, Austin, Tex.). mRNA was quantitated by a PhosphoImager (Molecular Dynamics, Sunnyvale, Calif.).
Jurkat cells were grown and treated as described above except the concentration of oligonucleotide was varied as indicated in Table 3. […] Maximum inhibition was approximately 70% with 16500 (SEQ ID NO 17).

[3] = system: human p38α mRNA; test: Human p38α mRNA expression in T-24 cells; settings: initial screen of human p38α oligonucleotides
[4] = Jurkat cells electroporated with 10 μM oligonucleotide, Northern blot

Row | Sequence | % mRNA EXPRESSION [2, 4] [%] | % mRNA Inhibition [2, 4] | other results
1 | CGGACCAGATATCCACTGTT (antisense e[5mC]eGeGeAe[5mC]*d[5mC]*dA*dG*dA*dT*dA*dT*d[5mC]*d[5mC]*dA*e[5mC]eTeGeTeT) [ISIS 107877] | – | – | % p38β mRNA Expression ([1]; dose 50 nM): 50%; % p38β mRNA Expression ([1]; dose 100 nM): 34%; % p38β mRNA Expression ([1]; dose 200 nM): 22%
2 | CTGCCGGTAGAACGTGGGCC (antisense e[5mC]*eT*eG*e[5mC]*e[5mC]*eG*dG*dT*dA*dG*dA*dA*dC*dG*eT*eG*eG*eG*e[5mC]*e[5mC]) [ISIS 16495] | 72 | 28% | –
3 | CTTCCACCATGGAGGAAATC (antisense e[5mC]*eT*eT*e[5mC]*e[5mC]*eA*dC*dC*dA*dT*dG*dG*dA*dG*eG*eA*eA*eA*eT*e[5mC]) [ISIS 16504] | 72 | 28% | –
4 | GAAGTGGGATCAACAGAACA (eG*eA*eA*eG*eT*eG*dG*dG*dA*dT*dC*dA*dA*dC*eA*eG*eA*eA*e[5mC]*eA; antisense) [ISIS 16501] | 77 | 23% | –
5 | GGTCTCGGGCGACCTCTCCT (antisense eG*eG*eT*e[5mC]*eT*e[5mC]*dG*dG*dG*dC*dG*dA*dC*dC*eT*e[5mC]*eT*e[5mC]*e[5mC]*eT) [ISIS 16491] | 148 | – | –
6 | GTAAGCTTCTGACATTTCAC (antisense eG*eT*eA*eA*eG*e[5mC]*dT*dT*dC*dT*dG*dA*dC*dA*eT*eT*eT*e[5mC]*eA*e[5mC]) [ISIS 16496] | 61 | – | % mRNA EXPRESSION ([2]; Jurkat cells, dose 2.5 nM): 94%; % mRNA Inhibition ([2]; Jurkat cells, dose 2.5 nM): 6%; % mRNA EXPRESSION ([2]; Jurkat cells, dose 5 nM): 74%; % mRNA Inhibition ([2]; Jurkat cells, dose 5 nM): 26%; % mRNA EXPRESSION ([2]; Jurkat cells, dose 10 nM): 47%; % mRNA Inhibition ([2]; Jurkat cells, dose 10 nM): 53%; % mRNA EXPRESSION ([2]; Jurkat cells, dose 20 nM): 41%; % mRNA Inhibition ([2]; Jurkat cells, dose 20 nM): 59%
7 | GTGGAGGCCAGTCCCCGGGA [ISIS 16487] | 171 | – | –
8 | TAAGGAGGTCCCTGCTTTCA (antisense eT*eA*eA*eG*eG*eA*dG*dG*dT*dC*dC*dC*dT*dG*e[5mC]*eT*eT*eT*e[5mC]*eA) [ISIS 16499] | 74 | 26% | –
9 | TATGGTCTGTACCAGGAAAC (chimeric deoxy gapped, phosphorothioate, further chemistry not given here) [ISIS 100870] | – | – | % P38α mRNA EXPRESSION [3]: 51%
10 | TCCTGAGACATTTTCCAGCG (antisense eT*e[5mC]*e[5mC]*eT*eG*eA*dG*dA*dC*dA*dT*dT*dT*dT*e[5mC]*e[5mC]*eA*eG*e[5mC]*eG) [ISIS 16494] | 72 | 28% | –
11 | TGAAAAGGCCTTCCCCTCAC (antisense eT*eG*eA*eA*eA*eA*dG*dG*dC*dC*dT*dT*dC*dC*e[5mC]*e[5mC]*eT*e[5mC]*eA*e[5mC]) [ISIS 16502] | 79 | 21% | –
12 | TGGCAGCAAAGTGCTGCTGG (eT*eG*eG*e[5mC]*eA*eG*dC*dA*dA*dA*dG*dT*dG*dC*eT*eG*e[5mC]*eT*eG*eG; antisense) [ISIS 16488] | 157 | – | –
13 | TGTGCCGAATCTCGGCCTCT (antisense eT*eG*eT*eG*e[5mC]*e[5mC]*dG*dA*dA*dT*dC*dT*dC*dG*eG*e[5mC]*e[5mC]*eT*e[5mC]*eT) [ISIS 16490] | 152 | no inhibition | % mRNA EXPRESSION ([2]; Jurkat cells, dose 2.5 nM): 112%; % mRNA EXPRESSION ([2]; Jurkat cells, dose 5 nM): 109%; % mRNA EXPRESSION ([2]; Jurkat cells, dose 10 nM): 104%; % mRNA EXPRESSION ([2]; Jurkat cells, dose 20 nM): 97%; % mRNA Inhibition ([2]; Jurkat cells, dose 20 nM): 3%
14 | TTTAGGTCCCTGTGAATTAT (eT*eT*eT*eA*eG*eG*dT*dC*dC*dC*dT*dG*dT*dG*eA*eA*eT*eT*eA*eT; antisense) [ISIS 16497] | 104 | – | –
